Key:
Assay type in all cases: cell-based
[1] = system: plant bodies; test: Influence of agent concentration on growth of plant (solid culture medium, FIG. 6); details: 30 days
From the text: The influence of a change in the concentrations of the agents used for sterilizing the culture medium on the growth of plants was investigated. The culture condition in this experiment was as follows:
Culture medium components: solid culture medium dosed with Otsuka-A
Number of plant bodies: 10
Numerical values: average±standard deviation
Sterilizing method: one-time dosing mode
Inoculating method (Culturing method): the method shown in FIG. 4 was used, with SE-P2000Cl140/SE-P2000Cl140 as the first/second microbicidal liquids, respectively.
In FIG. 6, the “Autoclave (Conventional Method)” indicates comparative examples, in which an explant which had undergone a microbicidal treatment in an autoclave was placed in a liquid culture medium and cultured in a clean bench.

[2] = system: microbial colony formation (bacteria, filamentous fungi); test: Microbial recontamination of sterilized solid culture medium after solidification (FIG. 8)
Experimental: A sterilized culture medium (Otsuka-A solid culture medium) was placed in 50 test tubes held in a tube stand and kept intact on a standard laboratory table (at temperatures of 14-24° C.), and the temporal change in the degree of microbial colony formation was investigated.

[3] = system: An (filamentous fungus, presumed to be Aspergillus niger complex); test: Sterilizing effect of microbicidal liquids in the inoculating process (FIG. 9), An; details: bacteria inoculated on potato explant, explant treated, 14 days
Experimental: (§1) An experiment was conducted to determine how the sterilizing effect after inoculation is related to the concentrations and combination of the agents used in the microbicidal liquid for explants and the microbicidal liquid for culture vessels. The experimental condition was as follows:
(§2) Solid culture medium: dosed with Otsuka-A
(§3) Sterilizing method: autoclave
(§4) Method of inoculation of bacteria: on culture medium surface [as for “B5” and “S3”, 50 μL per test tube of the bacterial suspension was dropped onto the surface of the culture medium; and as for “An”, 10 mg per test tube of either a conidial powder or a conidial powder diluted with a-starch to a predetermined dilution ratio was poured onto the culture medium]; or on explant [as for “B5” and “S3”, the explant was immersed in the bacterial suspension (whereby 10 μL per explant was attached); and as for “An”, the explant was coated with either a conidial powder or a conidial powder diluted with a-starch to a predetermined dilution ratio (whereby 5 mg per explant was attached)]

[4] = system: B5 strain, presumed to be Bacillus subtilis; test: Sterilizing effect of microbicidal liquids in the inoculating process (FIG. 9), B5; details: inoculated on potato explant; explant treated with microbicidal liquid (Cap or Nata 10000 mg/L or higher)
Experimental: as §1, §2, §3, §4

[5] = system: S3 strain, presumed to be Serratia sp.; test: Sterilizing effect of microbicidal liquids in the inoculating process (FIG. 9), S3; details: inoculated on potato explant; explant treated with microbicidal liquid (Ox 200 mg/L or higher; Nata 10000 mg/L or higher)
Experimental: as §1, §2, §3, §4

[6] = system: external bacteria; test: Occurrence rate of microbial contamination of liquid culture medium after sterilization (FIG. 14); details: explants inoculated in a common room, no bacteria inoculated
Experimental: The contamination rate by external bacteria after sterilization of a liquid culture medium was investigated. In any cases, the result was obtained under the condition that the inoculation of explants was performed in a common room with no bacteria inoculated. […] The microbial contamination rate increased when any one of the following agents was omitted: SE-P, Nisin, Ox, Nata, Cap, Imp10 and Cl7.

Molecule | concentration that did not negatively affect growth [1] | open storage of the culture ([2]; Natamycin in addition to P1670, Nisaplin and wettable powder STARNER, no ZonenC) | newly invasion of filamentous fungi ([2]; used in addition to P1670, Nisaplin and wettable powder STARNER) | concentration in microbicidal liquid preventing An colony formation to some extent [3] | formation of B5 colonies [4] | formation of S3 colonies [5] | microbial contamination rate when the agent was omitted [6] | need of adding the agent to prevent microbial contamination [6]
C[C@@H]1C/C=C/C=C/C=C/C=C/[C@H](O[C@@H]2O[C@H](C)[C@@H](O)[C@H](N)[C@@H]2O)C[C@@H]2O[C@](O)(C[C@@H](O)C[C@H]3O[C@@H]3/C=C/C(=O)O1)C[C@H](O)[C@H]2C(=O)O [Natamycin] | ≤ 100 µg/mL | open storage of the culture was not possible | dramatically decreased | ≥ 10000 mg/L | could not prevent | could not prevent | increased | 
Egg-white lysozyme |  |  |  |  |  |  |  | not necessary

Reference: patent publication US20160264932A1, “METHOD FOR PREPARING CULTURE MEDIUM FOR CULTURING PLANT TISSUE, METHOD FOR CULTURING PLANT TISSUE, STERILIZING AGENT, MICROBICIDAL AGENT, AND CULTURE MEDIUM COMPOSITION FOR CULTURING PLANT TISSUE” (priority 2013, published 2016)
